Data from PubChem BioAssay (NCI).
Where “and” joins values, the source holds several entries; their conditions need not be identical. Equal values may be shown once.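 Values below derive from 48-hour exposures of cells grown in 96-well plates, with endpoints linearly interpolated between the two concentrations bracketing the appropriate inhibition level. Abbreviation: GI50, concentration required for 50% inhibition of growth. Definition used: TGI = concentration required for complete inhibition of growth.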

Assays:
Assay in all cases: inhibition of tumour cell growth, NCI panel, 48 h
TK-10 renal = system: TK-10 renal
PC-3 prostate = system: PC-3 prostate
SF-539 CNS = system: SF-539 CNS
NCI-H460 lung = system: NCI-H460 lung
MCF7 breast = system: MCF7 breast
DU-145 prostate = system: DU-145 prostate
UACC-257 melanoma = system: UACC-257 melanoma
HCT-116 colon = system: HCT-116 colon
EKVX NSCLC = system: EKVX NSCLC
SK-OV-3 ovarian = system: SK-OV-3 ovarian

Row | Structure (SMILES) | GI50 (TK-10 renal) | TGI (TK-10 renal) | GI50 (PC-3 prostate) | TGI (PC-3 prostate) | GI50 (SF-539 CNS) [µM] | TGI (SF-539 CNS) [µM] | GI50 (NCI-H460 lung) [µM] | TGI (NCI-H460 lung) | GI50 (MCF7 breast) [µM] | TGI (MCF7 breast) | GI50 (DU-145 prostate) | TGI (DU-145 prostate) | GI50 (UACC-257 melanoma) [µM] | TGI (UACC-257 melanoma) | GI50 (HCT-116 colon) [µM] | TGI (HCT-116 colon) | GI50 (EKVX NSCLC) [µM] | TGI (EKVX NSCLC) [µM] | TGI (SK-OV-3 ovarian) | GI50 (SK-OV-3 ovarian) [µM]
1 | N#Cc1cccc(NC(=O)c2cc(-c3ccc(F)cc3F)ccc2O)c1 | 3.24 µM | 20.1 µM | 2.88 µM | 9.88 µM | 3.07 | 10.5 | 2.75 | 11.2 µM | 2.15 | 9.72 µM | 3.26 µM | > 100 µM | 1.53 | 5.84 µM | 2.57 | 10.6 µM | 2.65 | 10.9 | – | –
2 | COc1ncc(-c2ccc3ncnc(Nc4cccc(Cl)c4)c3c2)cc1NS(=O)(=O)CCN1CCOCC1 | – | – | 0.326 µM | > 100 µM | – | – | 0.393 | > 100 µM | – | – | 0.297 µM | > 100 µM | – | – | 1.49 | > 100 µM | – | – | – | –
3 | CC(=O)N1C/C(=C\c2ccc(N(C)C)cc2)C(=O)/C(=C/c2ccc(N(C)C)cc2)C1 | – | > 100 µM | – | – | – | 52.2 | – | – | – | – | – | – | – | > 100 µM | – | > 100 µM | – | – | > 100 µM | –
4 | CNc1nc(N)c(N=O)c(Nc2ccc(Br)cc2)n1 | – | > 100 µM | – | > 100 µM | – | > 100 | – | > 100 µM | – | > 100 µM | – | > 100 µM | – | > 100 µM | – | > 100 µM | – | > 100 | – | –
5 | CCCCOC(=O)NC(=O)c1cn(C2CCCCC2)c(=O)[nH]c1=O | – | > 100 µM | – | – | – | 37.9 | – | > 100 µM | – | – | – | – | – | > 100 µM | – | 50.1 µM | – | > 100 | 41.4 µM | –
6 | N#CCC(=O)NC1C2CC3CC(C2)CC1C3 (stereo not drawn) | – | 46.2 µM | – | – | – | 32.3 | – | 32.3 µM | – | – | – | – | – | 47.2 µM | – | 29.2 µM | – | 33.9 | 78.6 µM | –
7 | CC(C)c1cc2c(O)c(c1)Cc1cc(C(C)C)cc(c1O)Cc1cc(C(C)C)cc(c1O)Cc1cc(C(C)C)cc(c1O)C2 | – | > 100 µM | – | – | – | > 100 | – | > 100 µM | – | – | – | – | – | > 100 µM | – | > 100 µM | – | > 100 | > 100 µM | –
8 | CCCCCN(CCCCC)CC(O)c1ccc(Cl)c2ccccc12 (stereo not drawn) | 15.5 µM | 33.9 µM | 12.3 µM | 31.5 µM | – | – | 3.72 | 19.1 µM | 6.89 | 20.5 µM | 12.1 µM | 30.6 µM | 18.8 | 38.7 µM | 2.13 | 13.1 µM | 10.8 | 30.4 | 37.5 µM | 13.8
9 | COC(=O)C(=Cc1cc(OC)c(OC)c(OC)c1-c1cc2c(cc1C(C)=O)OCO2)C(=O)OC | – | 187 µM | – | – | – | 88.2 | – | > 211 µM | – | – | – | – | – | 188 µM | – | 62.5 µM | – | > 211 | > 211 µM | –
10 | COC(=O)c1cc(C)c(C)c2c1NC(=O)CNC2=O | – | – | – | – | – | > 100 | – | > 100 µM | – | – | – | – | – | > 100 µM | – | > 100 µM | – | > 100 | – | –
11 | COc1ccc(-c2nnc(COc3ccc(NC(=O)Nc4ccc(Cl)c(C(F)(F)F)c4)cc3F)o2)cc1 | 9.09 µM | 41.4 µM | 1.84 µM | 12.7 µM | 5.01 | 19.6 | 2.26 | 5.56 µM | 3.03 | 14.3 µM | 3.1 µM | 11.1 µM | 2.41 | 11.2 µM | 2.49 | 11.7 µM | – | – | 31.5 µM | 5.86
12 | O=C(Nc1ccc(Cl)cc1Cl)C(=O)C(C(=O)c1ccncc1)C1OC(=O)c2ccccc21 (stereo not drawn) | – | > 100 µM | – | – | – | > 100 | – | > 100 µM | – | – | – | – | – | > 100 µM | – | > 100 µM | – | > 100 | > 100 µM | –
13 | COc1ccc2nc3cc(Cl)ccc3c(NCCN)c2c1 | 1.76 µM | 3.18 µM | 1.72 µM | 3.38 µM | – | – | – | – | – | – | 1.53 µM | 2.92 µM | 18.6 | 33.3 µM | – | – | – | – | 3.26 µM | 1.81
14 | COc1cccc(N2C(=O)[C@H]3CC(C)c4c([nH]c5ccccc45)[C@H]3C2=O)c1 (stereo partly drawn) | – | > 100 µM | – | – | – | 93.1 | – | > 100 µM | – | – | – | – | – | > 100 µM | – | – | – | > 100 | 72.2 µM | –
15 | COC(=O)C(=O)C(C(=O)C=C(C)C)C(=O)C(=O)Nc1ccc(C)cc1C (stereo not drawn) | – | > 100 µM | – | – | – | > 100 | – | > 100 µM | – | – | – | – | – | > 100 µM | – | > 100 µM | – | > 100 | > 100 µM | –
16 | CON(C)C(=O)N1N=C(c2cc(F)ccc2F)SC1(CCCN)c1ccccc1 (stereo not drawn) | 3.19 µM and 2.33 µM | 18.8 µM and 17.7 µM | 0.0179 µM and < 0.01 µM | 15 µM and 14.2 µM | 0.027 | 0.351 | < 0.01 | 12 µM and 11.8 µM | < 0.01 | 11.6 µM and 11.5 µM | 0.0336 µM and < 0.01 µM | 11.8 µM and 11.3 µM | – | 21.7 µM and 22.3 µM | < 0.01 | 16.1 µM and 15.2 µM | – | – | 12.6 µM and 12.8 µM | < 0.01
17 | CC(C)c1ccc(C(c2ccc(OCC(=O)O)cc2)c2ccc(C(C)C)cc(=O)c2O)c(O)c(=O)c1 | – | 42.8 µM | – | – | – | 31.3 | – | 8.34 µM | – | – | – | – | – | 41.6 µM | – | 14.1 µM | – | > 100 | 41.9 µM | –
18 | CC[C@H](C)[C@H]1O[C@]2(C=C[C@@H]1C)C[C@@H]1C[C@@H](C/C=C(\C)[C@@H](O[C@H]3C[C@H](OC)[C@@H](O[C@H]4C[C@H](OC)[C@@H](NC)[C@H](C)O4)[C@H](C)O3)[C@@H](C)/C=C/C=C3\CO[C@@H]4[C@H](O)C(C)=C[C@@H](C(=O)O1)[C@]34O)O2 | 1.96 µM | 4.99 µM | 2.78 µM | 11.7 µM | 1.81 | 3.37 | 1.84 | 3.63 µM | 1.85 | 4.34 µM | – | – | 2.03 | 4.21 µM | 2 | 5.12 µM | 2.13 | 6.51 | 13.9 µM | 3.63
19 | COc1ccc(/C(Cl)=C(\C=O)c2ccc([N+](=O)[O-])cc2)cc1 | – | > 73.6 µM | – | – | – | 32.2 | – | > 100 µM | – | – | – | – | – | 64.9 µM | – | – | – | > 68.8 | 76.7 µM | –
20 | COC(C(O)c1ccc2c(c1)OCO2)P(=O)(c1ccccc1)c1ccccc1 (stereo not drawn) | – | > 100 µM | – | – | – | > 100 | – | > 100 µM | – | – | – | – | – | > 100 µM | – | > 100 µM | – | > 100 | – | –
